Data on seven compounds can be found in ChEMBL document CHEMBL1201862, “PubChem BioAssay data set” (2004).

Among the test systems are SW-620; NCI-H226; SF-268; A549; MDA-N; COLO 205; SF-539; UO-31; EKVX; CAKI-1; U-251; MCF7; 786-0; KM12; HT-29; A498; OVCAR-5; Hs-578T; M14; ACHN.
Common to all, as to assay: inhibition of tumour cell growth, NCI panel, 48 h

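Results reflect a 48-hour exposure of cells in 96-well plates to compound at five concentrations. GI50: concentration for 50% inhibition of growth.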 Active and inactive are the calls of the source. Cut-off read from the data, not from the text of the source: active = GI50 up to about 1.1 µM and inactive = higher. Bounds are passed on as bounds.

For `Nc1ccc(N(S(=O)(=O)c2ccccc2)S(=O)(=O)c2ccccc2)c(Cl)c1`, the GI50 is 42.9 µM (inactive) in the assay on SW-620; 73.5 µM (inactive) with NCI-H226; 69.2 µM (inactive) with SF-268; 50.5 µM (inactive) in the assay on A549; 28.9 µM (inactive) in the assay with MDA-N; 21 µM (inactive) in the assay on COLO 205. The GI50 is 69 µM (inactive) in the assay with SF-539; > 100 µM (inactive) with UO-31; 64.3 µM (inactive) in the assay on EKVX; 47.3 µM (inactive) in the assay on CAKI-1; 39.3 µM (inactive) in the assay on U-251; 39.3 µM (inactive) in the assay on MCF7. Further, the GI50 in the assay on 786-0 was 81.1 µM (inactive); with KM12, 24.2 µM (inactive); in the assay with HT-29, 37.8 µM (inactive); with A498, 25.2 µM (inactive); in the assay with OVCAR-5, > 100 µM (inactive); in the assay on Hs-578T it was 64 µM (inactive). Further, the values for the GI50 in the assay with M14 and in the assay with ACHN were 77.6 µM (inactive) and 66.5 µM (inactive), respectively.

As to `CC(C)CC(N)C(=O)NC(CNC(CCC(N)=O)C(=O)NC(CC(C)C)C(=O)NC(CC(C)C)C(=O)O)Cc1ccc2ccccc2c1` (stereo not given), the GI50 in the assay with SW-620, in the assay on NCI-H226, in the assay on SF-268, with A549, in the assay on MDA-N and in the assay on COLO 205 was > 10 µM (inactive) each time. For the same compound, the GI50 was > 10 µM (inactive) with SF-539; > 10 µM (inactive) with UO-31; > 10 µM (inactive) in the assay on EKVX; 9.31 µM (inactive) with CAKI-1; > 10 µM (inactive) in the assay with U-251; > 10 µM (inactive) in the assay on MCF7. For the same compound, the GI50 in the assay on 786-0, with KM12, with HT-29, in the assay with A498, in the assay with OVCAR-5 and in the assay on Hs-578T was > 10 µM (inactive) each time. For the same compound, the GI50 with M14 and in the assay on ACHN was > 10 µM (inactive) each time.

`CC(=O)OC1(C)C=CC(=O)C=C1`: the GI50 is 60.4 µM (inactive) in the assay with SW-620; 26.2 µM (inactive) in the assay with NCI-H226; 31 µM (inactive) in the assay on SF-268; > 100 µM (inactive) in the assay on A549; 31.2 µM (inactive) in the assay on MDA-N; > 100 µM (inactive) in the assay on COLO 205. In addition, the GI50 was 18.3 µM (inactive) in the assay on SF-539; 23.9 µM (inactive) in the assay on UO-31; 62.5 µM (inactive) with EKVX; 46 µM (inactive) in the assay on CAKI-1; 13.3 µM (inactive) with U-251; 20.4 µM (inactive) in the assay on MCF7. In addition, the GI50 was 23.4 µM (inactive) in the assay on 786-0; > 100 µM (inactive) in the assay with KM12; 63.5 µM (inactive) in the assay on HT-29; 31.6 µM (inactive) in the assay with A498; 40.8 µM (inactive) in the assay with OVCAR-5; 61.7 µM (inactive) in the assay with Hs-578T. Moreover, the GI50 was 32.6 µM (inactive) with M14 and 17.5 µM (inactive) in the assay with ACHN.

Turning to `CC1=NN(C(=O)c2ccccc2O)C(=O)/C1=C/c1c(O)ccc2ccccc12`, the GI50 in the assay on SW-620 was 0.863 µM (active); with NCI-H226, 1.53 µM (inactive); in the assay on SF-268, 0.723 µM (active); in the assay on A549, 2.06 µM (inactive); in the assay with MDA-N it was 5.2 µM (inactive); in the assay on COLO 205, 2.9 µM (inactive). In addition, the GI50 with SF-539 is 0.804 µM (active); with UO-31, 0.968 µM (active); in the assay on EKVX, 0.713 µM (active); in the assay on CAKI-1, 1.32 µM (inactive); in the assay with U-251, 0.982 µM (active); in the assay with MCF7, 3.31 µM (inactive). Moreover, the GI50 in the assay on 786-0 is 0.316 µM (active); in the assay on KM12, 2.78 µM (inactive); in the assay with HT-29, 10.2 µM (inactive); in the assay with A498, 2.44 µM (inactive); with OVCAR-5 it was 4.11 µM (inactive); with Hs-578T it was 21.4 µM (inactive). In addition, the GI50 in the assay on M14 is 0.587 µM (active); in the assay with ACHN it was 0.955 µM (active).

Turning to `O=[N+]([O-])c1cccc2nccc(NCC(O)CO)c12` (stereo not given), the GI50 in the assay on SW-620 was 14.5 µM (inactive); with NCI-H226, 12.2 µM (inactive); in the assay on SF-268 it was 19.8 µM (inactive); in the assay on A549, 15.1 µM (inactive); in the assay with MDA-N it was 17.1 µM (inactive); with COLO 205, 15 µM (inactive). For the same compound, the GI50 with SF-539 is 17.7 µM (inactive); in the assay on UO-31, 18.2 µM (inactive); in the assay with EKVX, 14.5 µM (inactive); in the assay on CAKI-1, 16 µM (inactive); with U-251, 14.6 µM (inactive); with MCF7, 13.9 µM (inactive). In addition, the GI50 is 18 µM (inactive) with 786-0; 14 µM (inactive) in the assay with KM12; 14.7 µM (inactive) in the assay with HT-29; 7.66 µM (inactive) in the assay with A498; 21 µM (inactive) with OVCAR-5; 7.8 µM (inactive) in the assay on Hs-578T. The GI50 in the assay with M14 was 17.4 µM (inactive); with ACHN, 20.6 µM (inactive).

As to `CCOC(=O)C(=Cn1c(=S)[nH]c2ccc([N+](=O)[O-])cc21)C(=O)OCC`, the GI50 in the assay with SW-620 was > 100 µM (inactive); in the assay with NCI-H226, 39.8 µM (inactive); with SF-268 it was > 100 µM (inactive); in the assay with A549 it was > 100 µM (inactive); in the assay on MDA-N it was > 100 µM (inactive); with COLO 205 it was > 100 µM (inactive). Moreover, the GI50 in the assay with SF-539 was > 100 µM (inactive); with UO-31, 87.9 µM (inactive); in the assay with EKVX it was > 100 µM (inactive); in the assay on CAKI-1 it was > 100 µM (inactive); in the assay on U-251, > 100 µM (inactive); in the assay on MCF7, > 100 µM (inactive). Further, the GI50 with 786-0 is > 100 µM (inactive); in the assay with KM12 it was > 100 µM (inactive); in the assay with HT-29, > 100 µM (inactive); with A498, > 100 µM (inactive); with OVCAR-5 it was > 100 µM (inactive); in the assay with Hs-578T it was 90.4 µM (inactive). For the same compound, the GI50 with M14 and with ACHN was > 100 µM (inactive) in each case.

Consider `COc1c(-c2ccc3c(c2)OCO3)oc2cc3c(c(OC)c2c1=O)OCO3` [MELITERNATIN], for which the GI50 in the assay on SW-620 was 25.1 µM (inactive); in the assay with NCI-H226, 18.7 µM (inactive); in the assay with SF-268, 14.2 µM (inactive); with A549 it was 20.2 µM (inactive); in the assay with MDA-N it was 18.5 µM (inactive); in the assay with COLO 205, 23.1 µM (inactive). In addition, the GI50 was 16.3 µM (inactive) in the assay on SF-539; 23 µM (inactive) in the assay on UO-31; 24.5 µM (inactive) with EKVX; 23.8 µM (inactive) with CAKI-1; 16.6 µM (inactive) with U-251; 18.4 µM (inactive) in the assay on MCF7. Also, the GI50 was 48.2 µM (inactive) with 786-0; 25.5 µM (inactive) in the assay on KM12; 23.3 µM (inactive) in the assay on HT-29; 23.5 µM (inactive) in the assay with A498; 29.8 µM (inactive) in the assay with OVCAR-5; 31.1 µM (inactive) with Hs-578T. The GI50 is 26.2 µM (inactive) in the assay with M14 and 22.3 µM (inactive) in the assay on ACHN.
